Data: patent publication US9340510B2, “Tetrahydroisoquinoline derivatives, pharmaceutical compositions and uses thereof” (Boehringer Ingelheim International GmbH, priority 2014, dated 2016)

biological target: human ACC2 (Homo sapiens (Human), UniProt O00763); experiment: ACC2 assay: spectrophotometric 384 well assay (coupled lactate dehydrogenase/pyruvate kinase); assay type: biochemical; settings: hACC2 construct lacking the 128 N-terminal amino acids, 25° C., 340 nm
Method: Spectrophotometric 384 Well Assay
Malonyl CoA formation by acetyl CoA carboxylases is stoichiometrically linked to the consumption of ATP. ACC2 activity is measured in a […] kinetic method measuring ADP generated during the ACC reaction using a coupled lactate dehydrogenase/pyruvate kinase reaction.
For biological testing, a human ACC2 construct which lacks the 128 amino acids at the N-terminus for increased solubility (nt 385-6966 in Genbank entry AJ575592) is cloned. The protein is then expressed in insect cells using a baculoviral expression system. Protein purification is performed by anion exchange.
All compounds are dissolved in dimethyl sulfoxide (DMSO) to a concentration of 10 mM.
Assay reactions are then carried out in 384-well plates, with hACC2 in an appropriate dilution and at final assay concentrations (f.c.) of 100 mM Tris (pH 7.5), 10 mM trisodium citrate, 25 mM KHCO3, 10 mM MgCl2, 0.5 mg/ml BSA, 3.75 mM reduced L-glutathione, 15 U/ml lactate dehydrogenase, 0.5 mM phosphoenolpyruvate, 15 U/ml pyruvate kinase, compounds at different concentrations at final DMSO concentrations of 1%.
The enzymatic reaction is then started by addition of a mixture of NADH, acetyl Coenzyme A (both […].) and ATP (500 uM f.c.). The decrease of the optical density (slope S) is then determined at 25° C. at a wavelength of 340 nm over 15 minutes in a spectrophotometric reader.
Each assay microtiter plate contains wells with vehicle instead of compound as controls for the non-inhibited enzyme (100% CTL; ‘HIGH’) and wells without acetyl-CoA as controls for non-specific NADH degradation (0% CTL; ‘LOW’).
The slope S is used for calculation of % CTL=(S(compound)−S(‘LOW’))/(S(‘HIGH’)−S(‘LOW’))*100. Compounds will give values between 100% CTL (no inhibition) and 0% CTL (complete inhibition).
For IC50 value determination, the sample slope in the presence of the test compound after subtraction of the low controls (S(compound)−S(‘LOW’)) are used.
An IC50 value is derived from the compound slopes at different dosages after subtraction of the low controls (S(compound)-S(‘LOW’)) by non-linear regression curve fitting (equation y=(A+((B−A)/(1+((C/x)^D))))).

human ACC2, sequence (O00763 129-2458): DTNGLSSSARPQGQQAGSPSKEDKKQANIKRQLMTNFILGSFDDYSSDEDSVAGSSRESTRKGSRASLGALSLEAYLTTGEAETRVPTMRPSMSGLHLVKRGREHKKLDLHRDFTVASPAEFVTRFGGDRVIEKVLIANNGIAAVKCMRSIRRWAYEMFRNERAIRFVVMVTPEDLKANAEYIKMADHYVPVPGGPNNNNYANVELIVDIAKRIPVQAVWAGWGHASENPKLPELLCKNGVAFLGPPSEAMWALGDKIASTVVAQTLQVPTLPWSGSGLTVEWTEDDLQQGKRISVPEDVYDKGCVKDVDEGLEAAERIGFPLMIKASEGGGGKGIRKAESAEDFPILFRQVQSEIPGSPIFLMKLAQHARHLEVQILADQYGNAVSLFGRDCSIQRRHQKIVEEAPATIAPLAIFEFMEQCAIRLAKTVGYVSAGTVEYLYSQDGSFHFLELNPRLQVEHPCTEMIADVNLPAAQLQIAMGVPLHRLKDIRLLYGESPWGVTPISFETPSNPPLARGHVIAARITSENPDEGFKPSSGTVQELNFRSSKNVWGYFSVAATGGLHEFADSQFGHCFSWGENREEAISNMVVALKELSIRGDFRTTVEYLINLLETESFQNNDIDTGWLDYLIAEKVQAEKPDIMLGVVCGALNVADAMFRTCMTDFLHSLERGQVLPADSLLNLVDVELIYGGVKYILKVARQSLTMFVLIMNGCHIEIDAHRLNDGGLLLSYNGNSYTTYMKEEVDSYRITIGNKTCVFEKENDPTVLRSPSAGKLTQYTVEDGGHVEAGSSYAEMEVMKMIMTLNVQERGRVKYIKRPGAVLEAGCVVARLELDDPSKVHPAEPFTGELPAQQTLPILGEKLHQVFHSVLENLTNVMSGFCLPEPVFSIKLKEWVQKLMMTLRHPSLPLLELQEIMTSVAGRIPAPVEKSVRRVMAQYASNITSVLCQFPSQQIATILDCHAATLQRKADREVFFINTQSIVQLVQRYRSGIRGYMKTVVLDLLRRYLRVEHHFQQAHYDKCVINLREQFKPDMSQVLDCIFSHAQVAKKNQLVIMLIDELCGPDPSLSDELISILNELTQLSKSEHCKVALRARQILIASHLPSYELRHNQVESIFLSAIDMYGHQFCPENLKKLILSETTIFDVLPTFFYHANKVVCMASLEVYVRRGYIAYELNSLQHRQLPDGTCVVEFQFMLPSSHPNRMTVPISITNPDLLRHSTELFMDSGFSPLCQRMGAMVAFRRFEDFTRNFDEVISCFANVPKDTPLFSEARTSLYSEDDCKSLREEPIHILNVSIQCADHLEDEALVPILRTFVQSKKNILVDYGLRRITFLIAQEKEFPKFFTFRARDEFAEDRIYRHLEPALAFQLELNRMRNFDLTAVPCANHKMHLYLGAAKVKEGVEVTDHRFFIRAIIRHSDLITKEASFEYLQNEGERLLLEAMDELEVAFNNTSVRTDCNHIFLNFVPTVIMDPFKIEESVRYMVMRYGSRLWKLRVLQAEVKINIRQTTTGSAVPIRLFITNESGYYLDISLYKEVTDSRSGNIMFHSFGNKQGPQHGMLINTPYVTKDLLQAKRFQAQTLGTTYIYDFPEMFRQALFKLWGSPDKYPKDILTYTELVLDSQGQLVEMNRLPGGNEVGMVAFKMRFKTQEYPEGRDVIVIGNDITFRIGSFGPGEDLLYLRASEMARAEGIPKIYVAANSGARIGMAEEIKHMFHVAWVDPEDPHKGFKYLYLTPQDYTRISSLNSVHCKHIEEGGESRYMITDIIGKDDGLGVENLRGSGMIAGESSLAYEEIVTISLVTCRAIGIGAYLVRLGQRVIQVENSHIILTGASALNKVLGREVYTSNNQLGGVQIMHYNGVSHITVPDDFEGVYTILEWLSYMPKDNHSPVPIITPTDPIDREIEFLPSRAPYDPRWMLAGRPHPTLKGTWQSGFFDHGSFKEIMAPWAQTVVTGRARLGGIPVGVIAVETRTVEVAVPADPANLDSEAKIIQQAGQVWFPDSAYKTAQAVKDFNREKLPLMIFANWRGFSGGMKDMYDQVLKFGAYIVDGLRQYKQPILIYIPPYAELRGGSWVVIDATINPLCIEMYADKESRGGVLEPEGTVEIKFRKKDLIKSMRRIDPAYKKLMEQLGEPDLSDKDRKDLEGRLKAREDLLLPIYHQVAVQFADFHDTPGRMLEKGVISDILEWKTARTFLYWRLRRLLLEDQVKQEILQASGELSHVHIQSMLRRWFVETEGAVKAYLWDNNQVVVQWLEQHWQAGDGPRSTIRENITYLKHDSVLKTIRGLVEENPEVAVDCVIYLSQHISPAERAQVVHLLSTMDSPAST

SMILES	IC50
CCCOc1cccc2c1CCN(Cc1ccc(C(C)NC(C)=O)cc1)C2 (centres unmarked) [Example 1.019]	326 nM
COc1c(OCCC2CC2)ccc2c1CCN(Cc1ccc([C@H](C)NC(C)=O)cc1)C2 [Example 1.077]	40 nM
CC(=O)NC(C)c1ccc(CN2CCc3cc(OC(C)C)ccc3C2)cc1 (centres unmarked) [Example 1.021]	110 nM
COc1c(OCC2CC2(F)F)ccc2c1CCN(Cc1ccc([C@H](C)NC(C)=O)cc1)C2 (some centres unmarked) [Example 1.064]	104 nM
CC(=O)NC(C)c1ccc(CN2CCc3cc(C(F)F)ccc3C2)cc1 (centres unmarked) [Example 1.028]	789 nM
CC(=O)N[C@@H](C)c1ccc(CN2Cc3ccc(OC(C)C)cc3C(F)C2)cc1 (some centres unmarked) [Example 1.100]	30 nM
C[C@H](NC(=O)C1CC(F)C1)c1ccc(CN2Cc3ccc(OCC4CC4(F)F)cc3C(O)C2)cc1 (some centres unmarked) [Example 2.036]	408 nM
C[C@H](NC(=O)Cc1cncnc1)c1ccc(CN2CCc3cc(OC[C@@H]4CC4(F)F)ccc3C2)cc1 [Example 2.026]	81 nM
COc1c(OC2CCC2)ccc2c1CCN(Cc1ccc([C@H](C)NC(C)=O)cc1)C2 [Example 1.070]	145 nM
CCOc1ccc2c(c1OC)CCN(Cc1ccc([C@H](C)NC(C)=O)cc1)C2 [Example 1.067]	233 nM
CC(=O)NC(C)c1ccc(CN2CCc3c(Cl)cccc3C2)cc1 (centres unmarked) [Example 1.004]	206 nM
C[C@H](NC(=O)C1CC1)c1ccc(CN2Cc3ccc(OCC4CC4)cc3C(O)C2)cc1 (some centres unmarked) [Example 3.038]	198 nM
CCCOc1ccc2c(c1)CCN(Cc1ccc(C(C)NC(C)=O)cc1)C2 (centres unmarked) [Example 1.017]	60 nM
CC(=O)N[C@@H](C)c1ccc(CN2CCc3cc(OCCC(F)F)ccc3C2)cc1 [Example 1.063]	45 nM
C[C@H](NC(=O)C1CC1)c1ccc(CN2CCc3cc(OC[C@H]4CC4(F)F)ccc3C2)cc1 [Example 1.052]	24 nM
CC(=O)NC(C)c1ccc(CN2CCc3cc(OCCCF)ccc3C2)cc1 (centres unmarked) [Example 1.013]	146 nM
C[C@H](NC(=O)c1cncnc1)c1ccc(CN2CC(=O)c3cc(OCC4CC4(F)F)ccc3C2)cc1 (some centres unmarked) [Example 2.038]	819 nM
CCOc1ccc2c(c1Cl)CCN(Cc1ccc(C(C)NC(C)=O)cc1)C2 (centres unmarked) [Example 1.032]	263 nM
CCC(=O)N[C@@H](C)c1ccc(CN2CCc3cc(OCC4CC4(F)F)ccc3C2)cc1 (stereo partly drawn) [Example 4.001, N—((S)-1-{4-[6-(2,2-Difluoro-cyclopropylmethoxy)-3,4-dihydro-1H-isoquinolin-2-ylmethyl]-phenyl}-ethyl)-propionamide]	37 nM
C[C@H](NC(=O)C(F)(F)F)c1ccc(CN2CCc3cc(OCC4CC4(F)F)ccc3C2)cc1 (some centres unmarked) [Example 4.002]	53 nM
C[C@H](NC(=O)C1CC1)c1ccc(CN2CCc3cc(OCC(F)F)ccc3C2)cc1 [Example 1.046]	163 nM
C[C@H](NC(=O)[C@@H](C)O)c1ccc(CN2Cc3ccc(OCC4CC4)cc3C(F)C2)cc1 (some centres unmarked) [Example 3.061]	90 nM

SMILES	IC50
COc1c(OCC(F)F)ccc2c1CCN(Cc1ccc([C@H](C)NC(C)=O)cc1)C2 [Example 1.071]	340 nM
CNC(=O)N[C@@H](C)c1ccc(CN2CCc3cc(OCC4CC4(F)F)ccc3C2)cc1 (some centres unmarked) [Example 5.002]	59 nM
C[C@H](NC(=O)C1CC1)c1ccc(CN2CCc3c(cccc3C(F)(F)F)C2)cc1 [Example 2.007]	104 nM
CC(=O)N[C@@H](C)c1ccc(CN2Cc3ccc(OC4CCC4)cc3C(O)C2)cc1 (some centres unmarked) [Example 1.099]	421 nM
CC(=O)NC(C)c1ccc(CN2CCc3cc(OCCC4CC4)ccc3C2)cc1 (centres unmarked) [Example 1.012]	52 nM
CCC(=O)N[C@@H](C)c1ccc(CN2CC(=O)c3cc(OCC4CC4(F)F)ccc3C2)cc1 (some centres unmarked) [Example 7.007]	185 nM
C[C@H](NC(=O)CO)c1ccc(CN2CCc3cc(OCC4CC4)ccc3C2)cc1 [Example 2.023]	82 nM
C[C@H](NC(=O)CC#N)c1ccc(CN2Cc3ccc(OCC4CC4(F)F)cc3C(F)C2)cc1 (some centres unmarked) [Example 3.029]	45 nM
COc1c(OC2CCC2)ccc2c1CCN(Cc1ccc([C@H](C)NC(C)=O)cc1)C2C (some centres unmarked) [Example 1.085]	280 nM
CC(=O)NC(C)c1ccc(CN2CCc3c(ccc(OCC4CCC4)c3Cl)C2)cc1 (centres unmarked) [Example 1.033]	44 nM
CC(=O)N[C@@H](C)c1ccc(CN2CCc3cc(OCC4CC4(F)F)ccc3C2C)cc1 (some centres unmarked) [Example 1.082]	39 nM
C[C@H](NC(=O)c1cnn(C)c1)c1ccc(CN2CCc3cc(OCC4CC4(F)F)ccc3C2)cc1 (some centres unmarked) [Example 3.004]	46 nM
C[C@H](NC(=O)N(C)C)c1ccc(CN2CCc3cc(OCC4CC4(F)F)ccc3C2)cc1 (some centres unmarked) [Example 5.003]	20 nM
CCCOc1ccc2c(c1OC)CCN(Cc1ccc([C@H](C)NC(C)=O)cc1)C2 [Example 1.074]	79 nM
C[C@H](NC(=O)CC(N)=O)c1ccc(CN2Cc3ccc(OCC4CC4)cc3C(F)C2)cc1 (some centres unmarked) [Example 3.034]	115 nM
C[C@H](NC(=O)Cc1cncnc1)c1ccc(CN2CC(=O)c3cc(OCC4CC4)ccc3C2)cc1 [Example 2.044]	446 nM
CC(=O)N[C@@H](C)c1ccc(CN2Cc3ccc(OCC4CCC4)cc3C(O)C2)cc1 (some centres unmarked) [Example 1.101]	55 nM
CC(=O)N[C@@H](C)c1ccc(CN2CC(=O)c3cc(OCc4ccccc4)ccc3C2)cc1 [Example 1.089]	89 nM
COc1c(OCC2CCC2)ccc2c1CCN(Cc1ccc([C@H](C)NC(C)=O)cc1)C2 [Example 1.073]	40 nM
C[C@H](NC(=O)[C@H]1C[C@H](F)C1)c1ccc(CN2Cc3ccc(OCC4CC4)cc3C(O)C2)cc1 (some centres unmarked) [Example 3.049]	448 nM
C[C@H](NC(=O)C1CCC[C@@H]1N)c1ccc(CN2Cc3ccc(OCC4CC4)cc3C(F)C2)cc1 (some centres unmarked) [Example 3.056]	886 nM
CCNC(=O)N[C@@H](C)c1ccc(CN2Cc3ccc(OCC4CC4)cc3C(F)C2)cc1 (some centres unmarked) [Example 5.007]	49 nM

SMILES	IC50
COc1c(OCCC(F)(F)F)ccc2c1CCN(Cc1ccc([C@H](C)NC(C)=O)cc1)C2 [Example 1.066]	111 nM
C[C@H](NC(=O)N(C)C)c1ccc(CN2Cc3ccc(OCC4CC4)cc3C(O)C2)cc1 (some centres unmarked) [Example 5.005]	155 nM
C[C@H](NC(=O)CO)c1ccc(CN2CC(=O)c3cc(OCC4CC4)ccc3C2)cc1 [Example 2.041]	600 nM
COC(=O)c1ccc2c(c1)CCN(Cc1ccc(C(C)NC(C)=O)cc1)C2 (centres unmarked) [Example 1.002]	524 nM
CC(=O)NC(C)c1ccc(CN2CCc3c(ccc(OCC4CC4(F)F)c3Cl)C2)cc1 (centres unmarked) [Example 1.025]	49 nM
C[C@H](NC(=O)C1CC1)c1ccc(CN2CCc3c(ccc(OCC4CC4(F)F)c3Cl)C2)cc1 (some centres unmarked) [Example 1.049]	63 nM
CCOc1ccc2c(c1)CCN(Cc1ccc(C(C)NC(C)=O)cc1)C2 (centres unmarked) [Example 1.016]	273 nM
CC(=O)NC(C)c1ccc(CN2CCc3c(cccc3OC(C)C)C2)cc1 (centres unmarked) [Example 1.005]	252 nM
C[C@H](NC(=O)N(C)C)c1ccc(CN2Cc3ccc(OCC4CC4(F)F)cc3C(O)C2)cc1 (some centres unmarked) [Example 6.002]	173 nM
CC(=O)NC(C)c1ccc(CN2CCc3c(ccc(OCC(F)F)c3Cl)C2)cc1 (centres unmarked) [Example 1.038]	218 nM
CCOc1ccc2c(c1OC)CCN(Cc1ccc([C@H](C)NC(C)=O)cc1)C2C (some centres unmarked) [Example 1.083]	449 nM
CCC(=O)N[C@@H](C)c1ccc(CN2CCc3c(Br)cccc3C2)cc1 [Example 2.011]	194 nM
C[C@H](NC(=O)C1(O)CC1)c1ccc(CN2Cc3ccc(OCC4CC4)cc3C(F)C2)cc1 (some centres unmarked) [Example 3.062]	102 nM
C[C@H](NC(=O)C1CC(F)C1)c1ccc(CN2CCc3cc(OCC4CC4(F)F)ccc3C2)cc1 (some centres unmarked) [Example 3.007]	50 nM
C[C@H](NC(=O)C(F)F)c1ccc(CN2CCc3cc(OCC4CC4(F)F)ccc3C2)cc1 (some centres unmarked) [Example 4.003]	25 nM
CC(=O)NC(C)c1ccc(CN2CCc3c(ccc4c3OCCO4)C2)cc1 (centres unmarked) [Example 1.029]	228 nM
CC(=O)NC(C)c1ccc(CN2CCc3c(ccc(OCC(C)C)c3Cl)C2)cc1 (centres unmarked) [Example 1.030]	58 nM
CC(C)Oc1ccc2c(c1)CCN(Cc1ccc([C@H](C)NC(=O)C3CC3)cc1)C2 [Example 1.047]	71 nM
CC(=O)N[C@@H](C)c1ccc(CN2Cc3ccc(OCC4CC4)cc3C(O)C2)cc1 (some centres unmarked) [Example 1.096]	315 nM
C[C@H](NC(=O)Cc1cncnc1)c1ccc(CN2CCc3cc(OCC4CC4)ccc3C2)cc1 [Example 2.022]	82 nM
COc1cccc2c1CCN(Cc1ccc([C@H](C)NC(=O)C3CC3)cc1)C2 [Example 2.002]	237 nM
